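Step 1: Grow cells in 96-well plates. Step 2: Expose to compound for 48 hours at 5 concentrations. Step 3: Interpolate endpoints linearly; if unreached, use highest concentration. TGI: concentration producing complete growth inhibition.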
Experiments:
Assay in all cases: growth of human tumour cells (NCI), 48 h
[1] = test system: SW-620 colon
[2] = test system: SNB-19 CNS
[3] = test system: MDA-MB-231 breast
[4] = test system: CCRF-CEM leukemia
[5] = test system: KM12 colon
[6] = test system: PC-3 prostate
[7] = test system: TK-10 renal
[8] = test system: SK-MEL-28 melanoma
[9] = test system: MDA-MB-435
[10] = test system: U251 CNS

| SMILES | TGI [1] | TGI [2] | TGI [3] | TGI [4] | TGI [5] | TGI [6] | TGI [7] | TGI [8] | TGI [9] | TGI [10] |
| --- | --- | --- | --- | --- | --- | --- | --- | --- | --- | --- |
| COc1ccc(NC(C(N)=O)c2cc3cc(Br)ccc3nc2Cl)cc1 (stereo not given) | > 100 µM | > 100 µM | > 100 µM | > 100 µM | > 100 µM | > 100 µM | 37.9 µM | > 100 µM | 56.5 µM | – |
| O=c1[nH]c2nccn2c2c1SCCN2 | > 100 µM | > 100 µM | – | > 100 µM | > 100 µM | > 100 µM | > 100 µM | > 100 µM | > 100 µM | > 100 µM |
| COC(=O)C1CCC(=O)N1C(c1cc(OC)c(OC)c(OC)c1)c1cccc2ccccc12 (stereo not given) | > 100 µM | > 100 µM | > 100 µM | – | > 100 µM | > 100 µM | > 100 µM | > 100 µM | > 100 µM | > 100 µM |
| CC(C)C(=O)/C=C/S/C=C/C(=O)C(C)C | 17 µM | > 100 µM | 15.9 µM | – | 92.1 µM | – | > 100 µM | 21.1 µM | 30.1 µM | 70.6 µM |
| CCN(CC)CCn1c(=O)c2c(C)c3oc4ccccc4oc3c(C)c2c1=O | > 100 µM | > 100 µM | > 100 µM | > 100 µM | > 100 µM | > 100 µM | > 100 µM | – | > 100 µM | > 100 µM |
| O=C(CN1CCCCC1)Nc1ccc2c(c1)C1Oc3ccccc3CC1CO2 (stereo not given) | 39.7 µM | – | 36.8 µM | > 100 µM | 49.9 µM | 35 µM | 50.9 µM | – | 38.4 µM | 33.3 µM |
| Cc1c(Cl)cccc1N=NC(=O)NNc1cccc(Cl)c1C | 30.8 µM | 41.9 µM | 37.1 µM | 42.6 µM | – | 26.1 µM | 29.6 µM | 30.1 µM | 34.5 µM | 29.7 µM |
| C=CC(C)C1(CCCOCc2ccccc2)C(=S)N2CCC3(CC24CCCC14)OCCO3 (stereo not given) | > 100 µM | > 100 µM | – | > 100 µM | > 100 µM | – | > 100 µM | > 100 µM | – | > 100 µM |
| NCCCNOCCCN | > 100 µM | > 100 µM | > 100 µM | – | > 100 µM | > 100 µM | > 100 µM | > 100 µM | > 100 µM | > 100 µM |
| CCCCc1ccc(Nc2nc(Cl)c3c(ncn3C3CC(Oc4ccc(C)cc4)C(COc4ccc(C)cc4)O3)n2)cc1 (stereo not given) | > 100 µM | > 100 µM | > 100 µM | > 100 µM | > 100 µM | > 100 µM | > 100 µM | – | > 100 µM | > 100 µM |
| O=C(O)/C(=C\c1ccc(O)cc1)c1cccc2ccccc12 | > 100 µM | > 100 µM | > 100 µM | – | > 100 µM | > 100 µM | > 100 µM | > 100 µM | > 100 µM | > 100 µM |
